Data published in article PMC6093661, “Vitamin E hydroquinone is an endogenous regulator of ferroptosis via redox control of 15-lipoxygenase” (PLoS ONE, 2018).
Where “and” joins values, the source holds several entries; their conditions need not be identical. Identical values can stand only once. Like-named read-outs stand apart in the source and are kept apart here.

Tests used:
[1] = tested on: Q7 cells; details: mouse
[2] = tested on: Q7 cells; experiment: Cellular lipid oxidation assay (BODIPY 581/591 C11, RSL3-treated Q7 cells); assay type: cell-based, mouse; details: RSL3 2 μM, 6-point titration, time-lapse microscopy
Protocol: Ferroptosis was induced by RSL3 (2 μM final concentration) in Q7 cells as described above. The protective activity of co-treated compounds was assessed also as described above. The rate of cellular lipid oxidation after GPX4 inhibition was assessed by monitoring the time-dependent changes in green fluorescence of cells pre-labeled with BODIPY™ 581/591 C11 dye (5 μM, 30-minute labeling period; Thermo Fisher/Invitrogen) using the IncuCyte S3 live-cell imaging apparatus (Sartorius) using a 10x objective. Cells (three images per field; at least three replicate wells per condition) were imaged once hourly for up to 18 hours after compound and RSL3 addition. Quantification of cell images was performed using the IncuCyte Zoom software using the Basic Analyzer tool which utilized an algorithm that calculated the total green-positive area per well where “green-positive” was defined as 1.45 times the local background-subtracted fluorescent signal. After a 2-3-hour lag period post-RSL3 treatment, the cellular green fluorescence signal began increasing. The rate of change in total green-positive area per well from 3–9 hours post-compound treatment was calculated, then expressed relative to that observed in the RSL3-only control treatment group, which was defined as 100%.

[3] = tested on: 15-HETE release from Q7 cells; experiment: Targeted arachidonate metabolite release cellular assay (RSL3-treated Q7 cells); assay type: cell-based, mouse
Protocol: Ferroptosis was initiated by RSL3 (2 μM final concentration) in Q7 cells as described above. The protective activity of co-treated compounds was assessed also as described above. Four to five hours after RSL3 treatment, the conditioned medium was collected into 1.2-mL cluster tubes containing ice-cold acetonitrile at a ratio of 1:2. Tubes were snap frozen on dry ice and stored at -80°C.
Prior to analysis, samples were thawed on wet ice and then vortexed briefly. Samples were centrifuged at 4000 rpm for 15min at 4°C. Supernatant (40 μL) was transferred to a 96-well injection plate and 10 μL of both internal standard and HPLC grade water were added. A Shimadzu Nexera MP system coupled to a Sciex 6500 Qtrap and configured for micro-flow was used to analyze all samples. Samples were maintained at 4°C in the Nexera MP autosampler for the duration of the analytical run.
A Thermo Gold-C8 column (1.9 μm, 1.0 x 100 mm) operated at 45°C was used for chromatographic separation. The total run time of the liquid chromatography method was 10 min. Mobile phase A consisted of water with 0.1% formic acid. Mobile phase B was composed of 0.1% formic acid in 3:1 acetonitrile:isopropyl alcohol. Gradient elution was employed, with mobile phase B being ramped from 5% at 0min, to 50% at 2 min, and finally 98% at 7.5 min. Electrospray conditions for the μLC-ESI-MS/MS method were optimized for a flow rate of 125 μL/min and were as follows: Ion spray voltage was set to -4500 V, temperature of 250°C, curtain gas of 20, CAD gas of 10, and ion source gas 1 and 2 of 20 and 40 psi, respectively. Analyzer parameters were optimized for each compound using a combination of manual tuning and compound optimization. The following MRM transitions were used to quantify concentrations of 15-HETE, 12-HETE and Arachidonic Acid (AA). 15-HETE: 319→219; 12-HETE: 319→179; AA: 303→259.

[4] = Radical-trapping antioxidant (RTA) activity assay in DOPC liposomes; details: for Radical Trapping Assay AUC (Rel. Control): 50 μM compound, 2 mol% in DOPC liposomes, BODIPY 581/591 C11 quenching, liposome-only control = 1
[5] = tested on: Mouse striatal Q7 cells (STHdhQ7/Q7); experiment: RSL3 ferroptosis cell rescue (cellular survival assay, CellTiter-Glo)
[6] = tested on: Q7 cells; experiment: Intracellular quantification of αT, αTQ and αTHQ in Q7 cells (LC-MS/MS, succinate capping); details: αTQ 10 μM, 24 h
[7] = ORAC (oxygen radical absorbance capacity) assay; details: average of 25 and 12.5 μM compound; mean, SEM, n = 6
Protocol: ORAC assay kits were purchased from Cell Biolabs. Assays were performed per the manufacturer’s instructions for lipophilic samples with minor modifications. DMSO stock solutions of compounds were diluted in an anaerobic glovebox to final concentrations of 25 and 12.5 μM in triplicate. A standard curve of Trolox® between 0–100 μM in triplicate per concentration was also generated on each assay plate. Diluted compounds and standards were removed from the glovebox and reactions initiated by addition of aerobic fluorescein reagent and radical initiator. Fluorescein fluorescence was monitored at excitation wavelength of 480 nm and emission wavelength of 520 nm every minute for one hour. AUC analysis was performed as described in the kit protocol. The “Trolox equivalents” at each concentration of test compound were calculated and the average Trolox equivalents at the two compound concentrations are presented. The errors were determined by propagating errors from the SEMs of the triplicate determinations to the averages across the two triplicate determinations.

[8] = target: T1, Rabbit 15-lipoxygenase (rLOX15) (Oryctolagus cuniculus, UniProt P12530); experiment: Lipoxygenase enzyme inhibition assay; assay type: biochemical; details: for inhibition of rabbit 15-LO enzyme activity: arachidonic acid as substrate, up to 100 μM; for IC50 / activity at 100 µM: rabbit 15-LO; for IC50: 50 μM arachidonic acid substrate; for activity at 100 µM: compound 100 μM, read-out: 15-Lipoxygenase Enzyme Assay % activity at 100 μM
T1 construct: purchased Enzo Life Sciences, Inc. BML-PL015
T1 sequence (P12530 1-663): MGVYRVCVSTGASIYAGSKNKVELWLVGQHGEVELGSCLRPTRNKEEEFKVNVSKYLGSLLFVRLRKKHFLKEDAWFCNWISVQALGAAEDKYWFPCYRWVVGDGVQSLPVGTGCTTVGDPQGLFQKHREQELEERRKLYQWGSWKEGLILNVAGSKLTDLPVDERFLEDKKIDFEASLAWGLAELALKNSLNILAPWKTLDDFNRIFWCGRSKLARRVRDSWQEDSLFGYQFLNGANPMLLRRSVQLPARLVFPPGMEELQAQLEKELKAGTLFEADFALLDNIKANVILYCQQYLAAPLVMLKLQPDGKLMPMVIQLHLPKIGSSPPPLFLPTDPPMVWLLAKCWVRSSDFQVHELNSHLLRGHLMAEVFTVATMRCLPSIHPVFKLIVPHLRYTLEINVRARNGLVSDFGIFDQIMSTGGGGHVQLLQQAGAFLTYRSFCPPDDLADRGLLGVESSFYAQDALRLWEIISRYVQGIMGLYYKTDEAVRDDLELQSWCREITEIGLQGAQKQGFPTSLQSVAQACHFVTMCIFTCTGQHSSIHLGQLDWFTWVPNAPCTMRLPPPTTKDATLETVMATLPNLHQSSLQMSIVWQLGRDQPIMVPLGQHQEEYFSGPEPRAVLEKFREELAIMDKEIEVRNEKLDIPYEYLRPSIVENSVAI
Protocol: Rabbit 15-lipoxygenase (rLOX15, part number BML-PL015, lot number 3-P9009a) was obtained from Enzo Life Sciences, Inc. Sodium cholate (part number C6445, lot number 094K0209) was obtained from Sigma-Aldrich.
Stock solutions of test compounds were prepared in DMSO and then diluted to final assay concentrations in cholate mix such that final cholate and DMSO concentrations were maintained at 0.2%.

[9] = tested on: Q7 cells; experiment: Cellular quantification of αTCC in Q7 cells (LC-MS/MS, succinate capping); assay type: in vitro ADME, mouse; details: 6 technical replicates in each of 4 experiments
Protocol: Due to poor ionization of αTCC, the succinate capping method was used for quantification of the succinate ester derivative formed by cell lysis with 100 mg/mL succinic anhydride in 95:5 (acetonitrile:triethylamine).
Q7 cells were cultured in standard culture medium for 18 hours prior to compound addition. After the specified treatment time, the culture medium was removed and adherent cells were washed with PBS. The wash was removed and adherent cells were harvested by adding 1 mL of 100 mg/mL succinic anhydride in 95:5 (acetonitrile:triethylamine) followed by immediate cell scrapping. After cell scrapping, samples were transferred to a 1.5 mL Eppendorf tube, vortexed for 15 seconds, and kept on wet ice until all samples were harvested. […]
Samples were analyzed using a developed method on a Shimadzu 30AD using micro-flow with a Shimadzu SIL-30AC autosampler, and coupled to an AB Sciex 6500+ QTRAP mass spectrometer. […] Analyzer parameters were optimized for each compound using a combination of manual tuning and compound optimization. αTCC was measured as αTCC-succinate. […]
A Phenomenex Kinetex C18 (2.1 x 50 mm, 1.3 µm) column using a reverse phase gradient mobile phase method was used for chromatographic separation. […] Data were analyzed using Sciex Analyst Chromatography software, version 1.6.2 and Sciex MultiQuant software. […]

[10] = Mus musculus, 18 h, read-out: RSL3 Ferroptosis Cell Assay Average EC50, Q7 cells, RSL3 2 μM, 18 h co-treatment, CellTiter-Glo 2.0

Row | Structure (SMILES) | fold increase in cellular αTHQ after αTQ supplementation [1] [fold] | fold increase in cellular αTQ after αTQ supplementation [1] [fold] | effect on RSL3-induced lipid oxidation (BODIPY 581/591 C11 oxidation) [2] | IC50 ([3]; Mus musculus, RSL3 2 μM, conditioned medium 4-5 h, read-out: IC50 for RSL3-induced cellular release of 15-HETE) [nM] | effect on 12-HETE levels ([3]; RSL3, compound 5 μM) | effect on cellular or released AA levels ([3]; RSL3, compound 5 μM) | effect on RSL3-dependent induction of cellular and released 15-HETE ([3]; compound 5 μM) | Radical Trapping Assay AUC (Rel. Control) [4] | EC50 [5, 10] [nM] | fold more potent than αT in preventing ferroptotic cell death ([5]; Q7 cells, RSL3, EC50 ratio vs αT) [fold] | EC50 ([5]; read-out: RSL3 Ferroptosis Cell Assay Average EC50, Q7 cells, RSL3 2 μM, 18 h co-treatment, CellTiter-Glo 2.0) [nM] | cellular exposure of αT after αTQ supplementation (back-conversion) [6] | cellular αTQ exposure after αTQ supplementation [6] | ORAC Antioxidant Activity Assay Trolox Equiv. [7] | inhibition of rabbit 15-LO enzyme activity [8] | IC50 [8] [µM] | activity at 100 µM [8] [%] | cellular exposure of αTCC [9] [µM] | RTA AUC fold greater than αTQ and αTHQ ([4]; DOPC liposomes, AUC relative to liposome only control) | rescue at 30 μM ([5]; Q7 cells, RSL3 2 μM, 30 μM highest concentration tested, mean ± SD, N = 7) [%]
1 | CC1=C(C)C(=O)C(CC[C@](C)(O)CCC[C@H](C)CCC[C@H](C)CCCC(C)C)=C(C)C1=O [αTQ, α-tocopherol quinone] | > 600 | > 300 | prevented | 600 | not altered | no effect | inhibited | 1.217 | 233 | 22 | 230 ± 100 | unaffected | over 250 μM | 0.044 Trolox Equiv. | did not | > 100 | 75 |  |  | 
2 | Cc1c(C)c2c(c(C)c1O)CCC(C)(CCCC(C)CCCC(C)CCCC(C)C)C2 (centres unmarked) [αTCC, 1,3,4,6-Tetramethyl-6-(4,8,12-trimethyltridecyl)-5,6,7,8-tetrahydronaphthalen-2-ol] |  |  |  |  |  |  |  | 4.706 | > 30000 |  |  |  |  | 0.075 Trolox Equiv. and 0.075 ± 0.008 Trolox Equiv. | did not | > 100 | 77 | > 50 | 2.5–4 fold | 42 ± 21
